Data reported in patent US10617693B2, “Methods of treating and/or preventing actinic keratosis” (Athenex, Inc., priority 2017, dated 2020).

How the values were obtained:
[1] = test system: AK lesions on the dorsal forearm; experiment: Phase 1 study KX01-AK-01-US: AK lesion counts and clearance; assay type: in vivo, human
Experimental: KX-01 was administered topically on treatment days. […] Standardized photography of the treatment area was performed.

[2] = test system: skin of forearm or forehead of AK patients; experiment: Comparison of skin reactions, photographs (FIGS. 3A-4B); assay type: in vivo, human
Description: The comparison in FIGS. 3A, 3B, 4A, and 4B illustrates the lack of skin toxicity observed in the treatment of AK with topically administered KX-01 compared to the approved therapy for AK.

[3] = test system: subjects with AK on the dorsal forearm; settings: human, in vivo
Experimental: A Phase 1, single-center, safety, tolerability and pharmacokinetic study of KX-01 was performed on subjects with AK on the dorsal forearm. This was an open-label, uncontrolled, nonrandomized, sequential group clinical trial conducted at a single investigational center in the United States. The primary objectives of the study were to assess the safety, tolerability and pharmacokinetics of KX-01 in subjects with AK. The secondary objective was to evaluate the activity of KX-01 administered topically to the dorsal forearm in subjects with AK.
KX-01 was administered topically on treatment days. All subjects were monitored for safety and tolerability that included LSRs, AEs, vital signs, clinical laboratory tests, ECGs, and physical examinations at baseline and at pre-defined time points during treatment and follow-up on days 1, 2, 3, 4, 5, 8, 10, 17, 31 and 45.
LSRs (erythema, flaking/scaling, crusting, swelling, vesiculation/pustulation, erosion/ulceration) were assessed by the investigator or trained designee using a 4-point scale according to the protocol. The subject's assessment of the symptoms (stinging/burning, pruritus) associated with irritation of the treatment area was evaluated on a 4-point scale (0=none, 1=mild, 2=moderate, 3=severe). Subjects were queried for spontaneously reported AEs at each study visit before assessment of LSRs. LSRs and AEs were reported separately. All LSRs were to be followed to resolution or stabilization.

[4] = test system: AK lesions on the face or scalp; experiment: Phase 2a study KX01-AK-002: AK lesion counts and clearance at day 57, 0.5 mg KX-01 on 25 cm^2; assay type: in vivo, human; settings: for Subjects with 100% clearance of AK lesions on day 57 / Subjects with at least 75% reduction of AK lesions on day 57 / AK lesion count, median: Cohort 1 (5-day), interim
Description: An ongoing Phase 2a, open-label, multicenter, activity and safety study of KX-01 administered topically in subjects with AK on the face or scalp is described herein. […] Secondary objectives are to assess the activity of KX-01 administered topically during Days 1-57 based on reduction of AK lesion counts from baseline, assess the safety and tolerability and pharmacokinetics, and contrast the dose regimens (5-day treatment with 3-day treatment) in terms of activity and safety in subjects with AK on the face or scalp. This uncontrolled, nonrandomized trial is being conducted at 16 investigational sites in the United States. Enrollment is sequential for 2 cohorts of approximately 80 subjects each. Enrollment is closed for Cohort 1 and ongoing for Cohort 2. The two treatment cohorts are summarized below: • Cohort 1: 0.5 mg KX-01 administered topically to a contiguous treatment area of 25 cm^2 with 4-8 clinically typical AK lesions for 5 consecutive days • Cohort 2: 0.5 mg KX-01 administered topically to a contiguous treatment area of 25 cm^2 with 4-8 clinically typical AK lesions for 3 consecutive days
0.5 mg KX-01 is administered topically to an area of 25 cm^2 on the face or scalp by site staff on treatment days. […] AK lesion counts are recorded at baseline, days 8, 15, 29, and 57. […] Standardized photography of treatment area is performed at baseline, day 8 and day 57. Plasma samples are being collected at preplanned time points on days 1 and 5 for Cohort 1, and on days 1 and 3 for Cohort 2.
The Phase 2a trial described in Example 2a was completed with 84 eligible subjects enrolled in each of two cohorts: one cohort was subjected to the treatment for 5 consecutive days, and the other cohort was subjected to the treatment for 3 consecutive days. The results are described below and in FIG. 5.

Compound: O=C(Cc1ccc(-c2ccc(OCCN3CCOCC3)cc2)cn1)NCc1ccccc1 [KX-01]
- Complete Clearance on Day 45 (100% reduction in AK lesions vs Baseline), n/N (%) ([1]; Cohort 2: 2 mg/100 cm^2 QD x3 days): 0/10
- AK lesion count, median (min, max) ([1]; Day 1 (Baseline), Cohort 1: 0.5 mg/25 cm^2 QD x3 days): 5.0 (4, 5)
- AK lesion count, median (min, max) ([1]; Day 1 (Baseline), Cohort 2: 2 mg/100 cm^2 QD x3 days): 11.5 (8, 16)
- AK lesion count, median (min, max) ([1]; Day 1 (Baseline), Cohort 3: 0.5 mg/25 cm^2 QD x5 days): 6.0 (5, 6)
- AK lesion count, median (min, max) ([1]; Day 1 (Baseline), Cohort 4: 2 mg/100 cm^2 QD x5 days): 11.0 (10, 16)
- AK lesion count, median (min, max) ([1]; Day 4, Cohort 1: 0.5 mg/25 cm^2 QD x3 days): 5.0 (4, 5)
- AK lesion count, median (min, max) ([1]; Day 4, Cohort 2: 2 mg/100 cm^2 QD x3 days): 9.0 (6, 16)
- AK lesion count, median (min, max) ([1]; Day 10, Cohort 1: 0.5 mg/25 cm^2 QD x3 days): 5.0 (4, 5)
- AK lesion count, median (min, max) ([1]; Day 10, Cohort 2: 2 mg/100 cm^2 QD x3 days): 7.0 (6, 11)
- AK lesion count, median (min, max) ([1]; Day 10, Cohort 3: 0.5 mg/25 cm^2 QD x5 days): 5.0 (5, 6)
- AK lesion count, median (min, max) ([1]; Day 10, Cohort 4: 2 mg/100 cm^2 QD x5 days): 10.0 (10, 10)
- AK lesion count, median (min, max) ([1]; Day 17, Cohort 1: 0.5 mg/25 cm^2 QD x3 days): 4.5 (3, 5)
- AK lesion count, median (min, max) ([1]; Day 17, Cohort 2: 2 mg/100 cm^2 QD x3 days): 7.0 (5, 15)
- AK lesion count, median (min, max) ([1]; Day 17, Cohort 3: 0.5 mg/25 cm^2 QD x5 days): 5.0 (4, 6)
- AK lesion count, median (min, max) ([1]; Day 17, Cohort 4: 2 mg/100 cm^2 QD x5 days): 10.0 (10, 11)
- AK lesion count, median (min, max) ([1]; Day 31, Cohort 1: 0.5 mg/25 cm^2 QD x3 days): 3.5 (1, 5)
- AK lesion count, median (min, max) ([1]; Day 31, Cohort 2: 2 mg/100 cm^2 QD x3 days): 7.0 (1, 15)
- AK lesion count, median (min, max) ([1]; Day 31, Cohort 3: 0.5 mg/25 cm^2 QD x5 days): 1.0 (0, 6)
- AK lesion count, median (min, max) ([1]; Day 31, Cohort 4: 2 mg/100 cm^2 QD x5 days): 6.0 (0, 11)
- AK lesion count, median (min, max) ([1]; Day 45, Cohort 1: 0.5 mg/25 cm^2 QD x3 days): 2.5 (0, 4)
- AK lesion count, median (min, max) ([1]; Day 45, Cohort 2: 2 mg/100 cm^2 QD x3 days): 4.0 (1, 10)
- AK lesion count, median (min, max) ([1]; Day 45, Cohort 3: 0.5 mg/25 cm^2 QD x5 days): 0.5 (0, 4)
- AK lesion count, median (min, max) ([1]; Day 45, Cohort 4: 2 mg/100 cm^2 QD x5 days): 4.5 (0, 12)
- Change in AK lesion counts over time ([1]; all 4 cohorts): reductions in mean baseline AK lesion counts over time
- Activity of 5-day versus 3-day regimen ([1]; rates of complete and partial clearance): 5-day regimen may provide better activity than the 3-day regimen
- Skin reaction in the forearm ([2]; day 3 and day 5 of treatment): minimal or no adverse skin reactions
- Skin reaction in the forehead ([2]; day 8 and day 57, subject with 100% response): minimal or no adverse skin reactions
- Skin reactions compared with Picato ([2]; in vivo): fewer and less severe skin reactions
- Efficacy for clearing AK lesions compared with Picato ([2]; initial data of Examples 1, 2a, 2b): may be similar
- Serious adverse event (SAE) or death [3]: no serious adverse event (SAE) or death
- Activity compared to Picato Phase 3 studies ([4]; 5-day regimen, cross-study tabulation): may be comparable
- Subjects with 100% clearance of AK lesions on day 57 ([4]; face, 35 subjects): 43%
- Subjects with at least 75% reduction of AK lesions on day 57 ([4]; face, 35 subjects): 60%
- Subjects with 100% clearance of AK lesions on day 57 ([4]; overall, 67 subjects): 36%
- Subjects with at least 75% reduction of AK lesions on day 57 ([4]; overall, 67 subjects): 51%
- Subjects with 100% clearance of AK lesions on day 57 ([4]; scalp, 32 subjects): 28%
- Subjects with at least 75% reduction of AK lesions on day 57 ([4]; scalp, 32 subjects): 41%
- AK lesion count, median ([4]; Day 1): 6.0
- AK lesion count, median ([4]; Day 8): 5.0
- AK lesion count, median ([4]; Day 15): 4.0
- AK lesion count, median ([4]; Day 29): 2.0
- AK lesion count, median ([4]; Day 57): 2.0
- Activity of 5-day versus 3-day regimen ([4]; Examples 1, 2a and 2b): greater activity than the 3-day regimen
